From patent publication US20200102254A1, “BIOFERTILIZER AND METHODS OF MAKING AND USING SAME” (President and Fellows of Harvard College, priority 2017, published 2020)

Columns and labels:
[1] = test system: glutamine synthetase (GS); assay: NH3 secretion in the hybrid device after addition of GS inhibitor; format: cell-based, X. autotrophicus; settings: 50 μM inhibitor
Method: Eappl is defined as the voltage difference between the working (OER) and counter/reference (HER) electrodes in a two-electrode configuration. After inoculation with X. autotrophicus (initial OD600=0.2), the reactor was purged with the gas mixture at a flow rate between 5 to 20 mL min^−1. These electrochemical cells were stirred at 350 rpm to facilitate mass transport and were immersed in a 30° C. water bath. The electrolyte was sampled every 12 or 24 hr to quantify OD600 and N accumulation. For time points in which […] (GS) inhibitor phosphinothricin (PPT) was added with final concentration of 50 μM, aliquots were sampled prior to inhibitor addition. The reported data are based on at least three biological replicates (n≥3).
Ntotal was determined from sampled aliquots after persulfate digestion and based on the absorption of oxidized phenol under acidic conditions (Hach Company 2672245). Nsoluble was determined similarly as Ntotal, except that the supernatants after 10,000 rpm centrifugation were digested in persulfate and subsequently analyzed. NH3 was also determined from the supernatants after centrifugation, but based on the salicylate method that is selective to ammonia (Hach Company TNT830). […] For each category of nitrogen content, the nitrogen concentrations were determined by comparing the solution absorbance with those in standard curves. When PPT was added to induce NH3 secretion, the measured nitrogen concentrations presented in FIG. 5B and Table 3 was subtracted from the nitrogen in PPT (2 nitrogen atoms per each PPT molecule for Ntotal, and 1 nitrogen atom per each PPT for NH3). The PPT nitrogen content was also subtracted when calculating ηelec, NRR in Table 1.

nitrogenase = settings: competitive inhibition of nitrogenase; cited from earlier work
X. autotrophicus = settings: read-out: half maximum inhibitory concentration (IC50)

In the case of `CP(=O)(O)CC[C@H](N)C(=O)O` [PPT, phosphinothricin], the “biomass of X. autotrophicus after inhibitor addition” value [1] is reported as “stagnated”, the “concentration of NNH3 at end of experiment” value ([1]; Eappl=3.0 V) is reported as ~0.8 mM and the “accumulated Ntotal” value ([1]; Eappl=3.0 V, n=3) is reported as 47 ± 3 mg/L. The “concentration of N in free NH3 in the solution (NNH3) at end of experiment” value ([1]; Eappl=3.0 V, n=3) was 11 ± 2 mg/L and the “biomass of X. autotrophicus after inhibitor addition” value ([1]; listed as phosphinothricin) was “slows”.
In the case of `[HH]` [H2, hydrogen], the “inhibition constant Ki(D2)” value (nitrogenase) is given as ~11 kPa.
Work on `[Co+2]` [Co2+] yielded an IC50 (X. autotrophicus) of ~50 µM.
